Earlier results as cited in PubChem BioAssay AID1259409 (Chemical Carcinogenesis Research Information System (CCRIS), 2018).

Tested on: rodent chemically induced tumor inhibition, incidence and multiplicity
Assay: CCRIS tumor inhibitor studies
Details: Carcinogen: 7,12-DIMETHYLBENZ[A]ANTHRACENE, 57-97-6, Route [Inhibitor]: DERMAL, Species: MOUSE

In the case of `CC(C)c1cc2c(c(O)c1O)[C@@]13CCCC(C)(C)[C@@H]1C[C@@H]2OC3=O`, the “tumour outcome (control, treated, inhibition, significance)” value (Dose [Inhibitor]: 0, 1 UMOL IN 200 µL ACETONE 2/WK FOR 20 WK BEGINNING 1 WK POST CARCINOGEN DOSE (STUDY DURATION: 20 WK), Strain/Sex: CD-1/FEMALE, Target Tissue: Type of Lesion: SKIN: TUMOR, Dose [Carcinogen]: 200 NMOL IN 200 µL ACETONE ONCE, Promoter: 12-O-TETRADECANOYLPHORBOL-13-ACETATE, 16561-29-8) is given as 93%, 93%, 0%, not significant, the “tumour outcome (control, treated, inhibition, significance)” value (Dose [Inhibitor]: 0, 3 UMOL IN 200 µL ACETONE 2/WK FOR 20 WK BEGINNING 1 WK POST CARCINOGEN DOSE (STUDY DURATION: 20 WK), Strain/Sex: CD-1/FEMALE, Target Tissue: Type of Lesion: SKIN: TUMOR, Dose [Carcinogen]: 200 NMOL IN 200 µL ACETONE ONCE, Promoter: 12-O-TETRADECANOYLPHORBOL-13-ACETATE, 16561-29-8) is given as 93%, 78%, 16%, not significant and the “tumour outcome (control, treated, inhibition, significance)” value (Dose [Inhibitor]: 0, 10 UMOL IN 200 µL ACETONE 2/WK FOR 20 WK BEGINNING 1 WK POST CARCINOGEN DOSE (STUDY DURATION: 20 WK), Strain/Sex: CD-1/FEMALE, Target Tissue: Type of Lesion: SKIN: TUMOR, Dose [Carcinogen]: 200 NMOL IN 200 µL ACETONE ONCE, Promoter: 12-O-TETRADECANOYLPHORBOL-13-ACETATE, 16561-29-8) is given as 93%, 60%, 35%, not significant.
For `CC1=C[C@H]2[C@@]3(O)[C@H](C)C[C@]4(OC(=O)Cc5ccccc5)C([C@@H]3C=C(CO)C[C@]2(O)C1=O)C4(C)C` (stereo partly specified), the “tumour outcome (control, treated, inhibition, significance)” value (Dose [Inhibitor]: 0, 2.14 NMOL 15 D POST INITIATION DOSE FOLLOWED BY 2.14 NMOL 2/WK DURING WK 3-22 APPLIED 15 MIN PRIOR TO EACH PROMOTION, Strain/Sex: CD-1/FEMALE, Target Tissue: Type of Lesion: SKIN: PAPILLOMA, Dose [Carcinogen]: 20 NMOL IN 200 µL ACETONE ONCE) is given as 100%, 82%, 18%, not calculated, the “tumour outcome (control, treated, inhibition, significance)” value (Dose [Inhibitor]: 0, 2.14 NMOL 15 D POST INITIATION DOSE FOLLOWED BY 2.14 PMOL 2/WK DURING WK 3-22 APPLIED 15 MIN PRIOR TO EACH PROMOTION, Strain/Sex: CD-1/FEMALE, Target Tissue: Type of Lesion: SKIN: PAPILLOMA, Dose [Carcinogen]: 20 NMOL IN 200 µL ACETONE ONCE) is given as 100%, 97%, 3%, not calculated and the “tumour outcome (control, treated, inhibition, significance)” value (Dose [Inhibitor]: 0, 2.14 NMOL 15 D POST INITIATION DOSE FOLLOWED BY 21.4 NMOL 2/WK DURING WK 3-22 APPLIED 15 MIN PRIOR TO EACH PROMOTION, Strain/Sex: CD-1/FEMALE, Target Tissue: Type of Lesion: SKIN: PAPILLOMA, Dose [Carcinogen]: 20 NMOL IN 200 µL ACETONE ONCE) is given as 100%, 53%, 47%, not calculated. The “tumour outcome (control, treated, inhibition, significance)” value (Dose [Inhibitor]: 0, 2.14 NMOL 15 D POST INITIATION DOSE FOLLOWED BY 21.4 PMOL 2/WK DURING WK 3-22 APPLIED 15 MIN PRIOR TO EACH PROMOTION, Strain/Sex: CD-1/FEMALE, Target Tissue: Type of Lesion: SKIN: PAPILLOMA, Dose [Carcinogen]: 20 NMOL IN 200 µL ACETONE ONCE) was 100%, 100%, 0%, not significant, the “tumour outcome (control, treated, inhibition, significance)” value (Dose [Inhibitor]: 0, 2.14 NMOL 15 D POST INITIATION DOSE FOLLOWED BY 214 PMOL 2/WK DURING WK 3-22 APPLIED 15 MIN PRIOR TO EACH PROMOTION D, Strain/Sex: CD-1/FEMALE, Target Tissue: Type of Lesion: SKIN: PAPILLOMA, Dose [Carcinogen]: 20 NMOL IN 200 µL ACETONE ONCE) was 100%, 95%, 5%, not calculated and the “tumour outcome (control, treated, inhibition, significance)” value (Dose [Inhibitor]: 2.14 NMOL BEGINNING 15 D POST INITIATION DOSE AND EVERY THURS. AS WELL AS 21.4 NMOL 15 MIN PRIOR TO EACH PROMOTION DOSE, Strain/Sex: CD-1/FEMALE, Target Tissue: Type of Lesion: SKIN: PAPILLOMA, Dose [Carcinogen]: 20 NMOL IN 200 µL ACETONE ONCE) was 100%, 65%, 35%, not calculated. For the same molecule, the “tumour outcome (control, treated, inhibition, significance)” value (Dose [Inhibitor]: 2.14 NMOL BEGINNING 15 D POST INITIATION DOSE AND EVERY WED. AS WELL AS 21.4 NMOL 15 MIN PRIOR TO PROMOTION DOSE ON FRI., Strain/Sex: CD-1/FEMALE, Target Tissue: Type of Lesion: SKIN: PAPILLOMA, Dose [Carcinogen]: 20 NMOL IN 200 µL ACETONE ONCE) was 98%, 50%, 49%, not calculated.
For `C/C(=C\c1ccc2c(c1)C(C)(C)CCC2(C)C)c1ccc(C(=O)O)cc1`, the “tumour outcome (control, treated, inhibition, significance)” value (Dose [Inhibitor]: 0.17 NMOL IN 0.2 ML ACETONE 1 HR PRIOR TO EACH PROMOTER DOSE FOR 12 WK (STUDY DURATION: 14 WK), Strain/Sex: SENCAR/FEMALE, Target Tissue: Type of Lesion: SKIN: PAPILLOMA, Dose [Carcinogen]: 200 NMOL IN 0.2 ML ACETONE ONCE, Promoter: 12-O-TETRADECANOYLPHORBOL-13-ACETATE, 16561-29-8) is listed as 100%, 93%, 7%, not calculated, the “tumour outcome (control, treated, inhibition, significance)” value (Dose [Inhibitor]: 0.17 NMOL IN 0.2 ML ACETONE 1 HR PRIOR TO EACH PROMOTER DOSE FOR 20 WK (STUDY DURATION: 22 WK), Strain/Sex: CD-1/FEMALE, Target Tissue: Type of Lesion: SKIN: PAPILLOMA, Dose [Carcinogen]: 200 NMOL IN 0.2 ML ACETONE ONCE, Promoter: 12-O-TETRADECANOYLPHORBOL-13-ACETATE, 16561-29-8) is listed as 94%, 87%, 8%, not calculated and the “tumour outcome (control, treated, inhibition, significance)” value (Dose [Inhibitor]: 1.7 NMOL IN 0.2 ML ACETONE 1 HR PRIOR TO EACH PROMOTER DOSE FOR 12 WK (STUDY DURATION: 14 WK), Strain/Sex: SENCAR/FEMALE, Target Tissue: Type of Lesion: SKIN: PAPILLOMA, Dose [Carcinogen]: 200 NMOL IN 0.2 ML ACETONE ONCE, Promoter: 12-O-TETRADECANOYLPHORBOL-13-ACETATE, 16561-29-8) is listed as 100%, 97%, 3%, not calculated. The “tumour outcome (control, treated, inhibition, significance)” value (Dose [Inhibitor]: 1.7 NMOL IN 0.2 ML ACETONE 1 HR PRIOR TO EACH PROMOTER DOSE FOR 20 WK (STUDY DURATION: 22 WK), Strain/Sex: CD-1/FEMALE, Target Tissue: Type of Lesion: SKIN: PAPILLOMA, Dose [Carcinogen]: 200 NMOL IN 0.2 ML ACETONE ONCE, Promoter: 12-O-TETRADECANOYLPHORBOL-13-ACETATE, 16561-29-8) was 94%, 69%, 27%, not calculated, the “tumour outcome (control, treated, inhibition, significance)” value (Dose [Inhibitor]: 17 NMOL IN 0.2 ML ACETONE 1 HR PRIOR TO EACH PROMOTER DOSE FOR 12 WK (STUDY DURATION: 14 WK), Strain/Sex: SENCAR/FEMALE, Target Tissue: Type of Lesion: SKIN: PAPILLOMA, Dose [Carcinogen]: 200 NMOL IN 0.2 ML ACETONE ONCE, Promoter: 12-O-TETRADECANOYLPHORBOL-13-ACETATE, 16561-29-8) was 100%, 3%, 97%, not calculated and the “tumour outcome (control, treated, inhibition, significance)” value (Dose [Inhibitor]: 17 NMOL IN 0.2 ML ACETONE 1 HR PRIOR TO EACH PROMOTER DOSE FOR 20 WK (STUDY DURATION: 22 WK), Strain/Sex: CD-1/FEMALE, Target Tissue: Type of Lesion: SKIN: PAPILLOMA, Dose [Carcinogen]: 200 NMOL IN 0.2 ML ACETONE ONCE, Promoter: 12-O-TETRADECANOYLPHORBOL-13-ACETATE, 16561-29-8) was 94%, 0%, 100%, not calculated.
